Some targets named below: EGFR(T790M) (Homo sapiens, UniProt P00533, T790M); MAPKAPK5 (Homo sapiens, UniProt Q8IW41); HIPK2 (Homo sapiens, UniProt Q9H2X6); EPHA1 (Homo sapiens, UniProt P21709); CDK9 (Homo sapiens, UniProt P50750); MYLK4 (Homo sapiens, UniProt Q86YV6); AKT3 (Homo sapiens, UniProt Q9Y243); ABL2 (Homo sapiens, UniProt P42684); PIP5K1A (Homo sapiens, UniProt Q99755); PDGFRB (Homo sapiens, UniProt P09619); MET(Y1235D) (Homo sapiens, UniProt P08581, Y1235D); DYRK2 (Homo sapiens, UniProt Q92630); LATS1 (Homo sapiens, UniProt O95835); ITK (Homo sapiens, UniProt Q08881); PIK3CA(H1047Y) (Homo sapiens, UniProt P42336, H1047Y); LRRK2(G2019S) (Homo sapiens, UniProt Q5S007, G2019S); FGFR4 (Homo sapiens, UniProt P22455); PIK3CA(E542K) (Homo sapiens, UniProt P42336, E542K); LIMK2 (Homo sapiens, UniProt P53671).

Common to all, as to assay: biochemical
What all share (parameters): KINOMEscan active-site competition binding, percent of control (100 = no competition)
Holding throughout (conditions): competition binding, percent control

The target in another test is T1, CTK (Homo sapiens, UniProt P42679).
T1 construct: gene MATK

In another test the target is T2, MEK5 (Homo sapiens, UniProt Q13163).
T2 construct: gene MAP2K5
T2 sequence (Q13163 whole entry): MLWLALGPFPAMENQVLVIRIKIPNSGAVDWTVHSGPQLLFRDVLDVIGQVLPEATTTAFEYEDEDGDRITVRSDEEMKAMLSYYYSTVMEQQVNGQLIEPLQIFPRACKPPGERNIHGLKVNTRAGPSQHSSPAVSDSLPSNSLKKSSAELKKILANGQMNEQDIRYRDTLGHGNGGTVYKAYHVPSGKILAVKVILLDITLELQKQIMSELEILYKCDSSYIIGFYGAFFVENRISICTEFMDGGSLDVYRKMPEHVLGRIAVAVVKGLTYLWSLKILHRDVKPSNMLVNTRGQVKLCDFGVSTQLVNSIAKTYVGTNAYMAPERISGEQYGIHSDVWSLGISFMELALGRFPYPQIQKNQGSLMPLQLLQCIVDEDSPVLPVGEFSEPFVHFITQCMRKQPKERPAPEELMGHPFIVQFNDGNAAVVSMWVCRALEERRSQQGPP

For a further test, the target named is T3, SgK110 (Homo sapiens, UniProt P0C264).
T3 construct: gene SBK3

For test [1], the target named is T4, ABL1(Y253F)-phosphorylated (Homo sapiens, UniProt P00519, Y253F).
T4 construct: phosphorylated

Sequence of LIMK2 (P53671 whole entry): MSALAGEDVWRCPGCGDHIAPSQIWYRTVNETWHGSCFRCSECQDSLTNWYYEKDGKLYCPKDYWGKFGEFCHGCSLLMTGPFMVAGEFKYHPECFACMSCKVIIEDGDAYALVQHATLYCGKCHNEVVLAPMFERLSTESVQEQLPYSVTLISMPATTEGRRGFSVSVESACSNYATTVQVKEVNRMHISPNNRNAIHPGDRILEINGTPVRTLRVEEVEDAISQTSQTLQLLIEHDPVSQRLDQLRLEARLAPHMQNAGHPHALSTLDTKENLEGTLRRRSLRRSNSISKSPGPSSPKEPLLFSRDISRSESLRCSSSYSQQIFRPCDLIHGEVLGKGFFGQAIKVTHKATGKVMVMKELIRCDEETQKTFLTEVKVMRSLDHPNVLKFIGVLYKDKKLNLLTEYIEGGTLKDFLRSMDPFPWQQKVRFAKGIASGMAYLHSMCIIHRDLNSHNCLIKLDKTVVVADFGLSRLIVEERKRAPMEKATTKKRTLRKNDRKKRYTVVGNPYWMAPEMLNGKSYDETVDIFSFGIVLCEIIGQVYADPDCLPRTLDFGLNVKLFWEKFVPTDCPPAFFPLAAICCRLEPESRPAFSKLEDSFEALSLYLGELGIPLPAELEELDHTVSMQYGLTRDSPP
Sequence of FGFR4 (P22455 whole entry): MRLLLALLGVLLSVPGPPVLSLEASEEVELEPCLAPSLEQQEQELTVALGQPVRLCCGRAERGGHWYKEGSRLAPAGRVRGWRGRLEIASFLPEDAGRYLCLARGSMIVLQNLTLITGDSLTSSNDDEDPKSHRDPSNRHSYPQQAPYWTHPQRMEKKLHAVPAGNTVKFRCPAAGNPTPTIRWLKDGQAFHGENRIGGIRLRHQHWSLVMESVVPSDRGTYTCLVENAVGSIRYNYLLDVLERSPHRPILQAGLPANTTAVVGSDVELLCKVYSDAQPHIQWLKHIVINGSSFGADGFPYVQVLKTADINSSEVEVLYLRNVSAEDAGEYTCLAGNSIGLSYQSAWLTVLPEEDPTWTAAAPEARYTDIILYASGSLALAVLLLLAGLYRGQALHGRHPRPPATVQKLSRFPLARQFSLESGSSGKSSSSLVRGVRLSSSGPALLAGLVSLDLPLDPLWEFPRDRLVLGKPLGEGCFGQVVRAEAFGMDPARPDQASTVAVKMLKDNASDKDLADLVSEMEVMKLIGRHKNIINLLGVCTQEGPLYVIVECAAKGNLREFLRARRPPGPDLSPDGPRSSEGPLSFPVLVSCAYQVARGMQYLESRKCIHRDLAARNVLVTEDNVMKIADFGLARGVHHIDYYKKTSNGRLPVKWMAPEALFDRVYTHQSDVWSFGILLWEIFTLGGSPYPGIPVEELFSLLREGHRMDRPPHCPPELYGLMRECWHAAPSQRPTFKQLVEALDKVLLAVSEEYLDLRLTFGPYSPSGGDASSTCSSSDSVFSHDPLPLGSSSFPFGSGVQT
Sequence of ABL2 (P42684 whole entry): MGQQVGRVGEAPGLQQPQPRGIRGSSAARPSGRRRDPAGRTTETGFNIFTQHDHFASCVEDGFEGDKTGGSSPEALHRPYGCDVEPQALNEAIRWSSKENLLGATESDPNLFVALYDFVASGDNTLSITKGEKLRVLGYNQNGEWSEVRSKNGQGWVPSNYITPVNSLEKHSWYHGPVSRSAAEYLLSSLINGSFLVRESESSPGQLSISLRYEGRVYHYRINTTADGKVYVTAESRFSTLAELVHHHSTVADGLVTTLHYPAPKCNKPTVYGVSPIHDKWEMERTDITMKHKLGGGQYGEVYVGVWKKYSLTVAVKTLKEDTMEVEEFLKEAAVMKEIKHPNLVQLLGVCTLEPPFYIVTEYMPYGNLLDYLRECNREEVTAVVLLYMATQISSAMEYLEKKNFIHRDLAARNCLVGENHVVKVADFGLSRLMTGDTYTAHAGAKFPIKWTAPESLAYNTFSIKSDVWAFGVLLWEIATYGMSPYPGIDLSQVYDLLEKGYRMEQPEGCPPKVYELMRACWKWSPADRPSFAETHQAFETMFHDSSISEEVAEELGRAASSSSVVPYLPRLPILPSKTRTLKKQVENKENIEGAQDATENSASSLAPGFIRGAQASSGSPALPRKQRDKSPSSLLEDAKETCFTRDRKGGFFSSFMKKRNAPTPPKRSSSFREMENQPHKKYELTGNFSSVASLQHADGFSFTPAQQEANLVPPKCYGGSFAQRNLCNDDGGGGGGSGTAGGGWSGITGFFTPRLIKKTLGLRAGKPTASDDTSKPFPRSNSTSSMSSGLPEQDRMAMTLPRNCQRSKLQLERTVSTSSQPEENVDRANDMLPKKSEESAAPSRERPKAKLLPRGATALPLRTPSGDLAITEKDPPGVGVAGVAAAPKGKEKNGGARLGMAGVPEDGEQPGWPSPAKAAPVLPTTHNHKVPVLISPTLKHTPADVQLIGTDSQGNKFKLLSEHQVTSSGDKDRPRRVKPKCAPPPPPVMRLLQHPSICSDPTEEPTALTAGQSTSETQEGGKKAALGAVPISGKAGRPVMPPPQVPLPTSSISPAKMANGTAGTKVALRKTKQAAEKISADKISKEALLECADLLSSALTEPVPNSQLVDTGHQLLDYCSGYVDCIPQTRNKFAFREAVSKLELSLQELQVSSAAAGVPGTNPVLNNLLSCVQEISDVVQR
Sequence of EPHA1 (P21709 whole entry): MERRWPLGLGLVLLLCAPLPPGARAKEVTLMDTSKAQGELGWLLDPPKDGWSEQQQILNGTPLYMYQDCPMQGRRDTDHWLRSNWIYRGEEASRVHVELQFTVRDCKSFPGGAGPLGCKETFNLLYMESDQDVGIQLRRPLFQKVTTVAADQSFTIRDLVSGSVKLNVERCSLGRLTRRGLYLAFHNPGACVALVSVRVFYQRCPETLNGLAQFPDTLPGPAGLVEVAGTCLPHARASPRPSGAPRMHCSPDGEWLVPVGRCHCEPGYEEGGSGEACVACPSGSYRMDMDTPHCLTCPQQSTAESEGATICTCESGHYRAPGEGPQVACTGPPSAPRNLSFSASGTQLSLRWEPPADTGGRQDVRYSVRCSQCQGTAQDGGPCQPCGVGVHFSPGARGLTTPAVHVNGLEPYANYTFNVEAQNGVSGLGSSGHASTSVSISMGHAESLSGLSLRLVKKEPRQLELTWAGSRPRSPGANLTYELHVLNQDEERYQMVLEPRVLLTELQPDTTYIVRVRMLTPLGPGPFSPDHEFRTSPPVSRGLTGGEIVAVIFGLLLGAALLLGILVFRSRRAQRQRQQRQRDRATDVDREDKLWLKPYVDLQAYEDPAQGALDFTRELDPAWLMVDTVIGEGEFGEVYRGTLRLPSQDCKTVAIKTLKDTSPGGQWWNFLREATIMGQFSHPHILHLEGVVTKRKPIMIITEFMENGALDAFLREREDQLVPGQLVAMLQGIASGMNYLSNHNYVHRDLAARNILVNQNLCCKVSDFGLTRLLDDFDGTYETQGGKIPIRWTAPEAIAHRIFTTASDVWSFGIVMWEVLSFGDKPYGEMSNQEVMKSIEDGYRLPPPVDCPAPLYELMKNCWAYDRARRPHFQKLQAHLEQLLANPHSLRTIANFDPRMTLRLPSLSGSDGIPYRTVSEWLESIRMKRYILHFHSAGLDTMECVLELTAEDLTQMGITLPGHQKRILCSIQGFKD
Sequence of CDK9 (P50750 whole entry): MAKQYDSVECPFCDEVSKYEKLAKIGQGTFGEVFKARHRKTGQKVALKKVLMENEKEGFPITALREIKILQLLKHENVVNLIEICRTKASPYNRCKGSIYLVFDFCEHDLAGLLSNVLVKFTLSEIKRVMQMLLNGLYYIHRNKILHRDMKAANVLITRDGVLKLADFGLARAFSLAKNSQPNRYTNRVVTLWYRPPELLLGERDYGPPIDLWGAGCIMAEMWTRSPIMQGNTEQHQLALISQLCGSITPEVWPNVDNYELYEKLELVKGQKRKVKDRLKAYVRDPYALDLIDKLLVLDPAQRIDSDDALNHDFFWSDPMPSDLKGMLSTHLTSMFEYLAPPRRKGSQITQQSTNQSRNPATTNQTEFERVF
Sequence of PIP5K1A (Q99755 whole entry): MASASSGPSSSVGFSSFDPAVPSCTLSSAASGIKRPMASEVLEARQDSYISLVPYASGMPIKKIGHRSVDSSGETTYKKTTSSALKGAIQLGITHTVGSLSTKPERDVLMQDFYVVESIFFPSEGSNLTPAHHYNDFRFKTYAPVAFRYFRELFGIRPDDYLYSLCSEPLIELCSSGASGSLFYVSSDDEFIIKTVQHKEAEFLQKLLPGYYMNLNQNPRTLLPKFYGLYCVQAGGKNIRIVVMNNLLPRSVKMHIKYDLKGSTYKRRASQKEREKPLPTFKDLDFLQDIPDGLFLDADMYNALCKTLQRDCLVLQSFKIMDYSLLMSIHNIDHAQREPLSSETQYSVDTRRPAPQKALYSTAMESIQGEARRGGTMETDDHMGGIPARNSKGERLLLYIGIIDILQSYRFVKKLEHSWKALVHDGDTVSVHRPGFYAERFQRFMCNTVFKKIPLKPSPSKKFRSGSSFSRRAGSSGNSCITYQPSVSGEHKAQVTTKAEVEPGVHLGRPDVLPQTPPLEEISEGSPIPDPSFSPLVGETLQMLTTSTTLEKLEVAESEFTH

For the compound `COc1ccc(-c2cnccc2-c2cnc(NC(=O)C(C)C)s2)c(C(F)(F)F)c1` [CRT0105446, N-{5-[3-(4-Methoxy-2-trifluoromethyl-phenyl)-pyridin-4-yl]-hiazol-2-yl}-isobutyramide], the remaining binding at 10 µM on EGFR(T790M) amounted to 78%; at MAPKAPK5, 95%; at CTK, 100%; at HIPK2, 92%; at MEK5, 100%; at EPHA1, 100%. Also, the remaining binding at 10 µM on CDK9 came out at 28%; at MYLK4, 71%; at AKT3 it was 100%; at ABL2, 100%; at PIP5K1A it was 100%; on PDGFRB it was 51%. Further, the remaining binding at 10 µM on MET(Y1235D) worked out at 96%; at DYRK2, 81%; on LATS1, 91%; on ITK, 100%; at PIK3CA(H1047Y), 94%; on LRRK2(G2019S) it was 86%. Further, the remaining binding at 10 µM was 100% at SgK110; 90% on FGFR4; 89% in test [1]; 100% on PIK3CA(E542K); 1.1% on LIMK2.
For `Cc1ccc(-c2cnccc2-c2cnc(Nc3ccc(O)cc3)s2)c(Cl)c1` [CRT0105950, 4-{5-[3-(2-Chloro-4-methyl-phenyl)-pyridin-4-yl]-thiazol-2-ylamino}-phenol], the remaining binding at 10 µM at EGFR(T790M) came out at 63%; at MAPKAPK5, 97%; on CTK, 100%; on HIPK2, 55%; at MEK5, 60%; at EPHA1, 74%. Further, the remaining binding at 10 µM at CDK9 stood at 65%; at MYLK4 it was 9.4%; on AKT3, 100%; on ABL2 it was 58%; on PIP5K1A, 82%; on PDGFRB it was 1.6%. Moreover, the remaining binding at 10 µM amounted to 14% on MET(Y1235D); 79% at DYRK2; 23% on LATS1; 61% on ITK; 93% on PIK3CA(H1047Y); 56% on LRRK2(G2019S). In addition, the remaining binding at 10 µM at SgK110 is 25%; at FGFR4, 29%; in [1], 74%; at PIK3CA(E542K), 100%; on LIMK2 it was 0%.

The record behind these values is PMC4770715, “LIM kinase inhibitors disrupt mitotic microtubule organization and impair tumor cell proliferation” (Oncotarget, 2015).
